# Test results from patent publication KR20170021349A, “다양한 질병의 치료를 위한 jnk 신호 전달 경로의 세포 투과성 펩타이드 억제자의 새로운 용도” (자이겐 인플라메이션 리미티드, priority 2014, dated 2017).
# Key:
# [1] = system: Varicella Zoster Virus (VZV); assay: Plaque reduction assay against VZV in HFFs; type: cell-based; details: for VZV spread (pfu) ± SD: 24 h
# [2] = Phase II trial, post-surgery intraocular inflammation, vs dexamethasone eye drops; type: in vivo, human
# rats = assay: Adriamycin-induced nephropathy; type: in vivo, rat
# [3] = system: Varicella Zoster Virus (VZV); assay: VZV-BAC-Luc replication (luciferase) in HFFs; type: cell-based; details: 24 h
# rat pancreatic islets = assay: Rat islet isolation after warm ischemia; type: cell-based
# [4] = system: PC-3 tumours in Balb/c nude mice; assay: Subcutaneous PC-3 human prostate tumour; type: in vivo, mouse; details: 0.1 and 1 mg/kg/inj Q4Dx4, dose-dependent, more marked at 1 mg/kg
# Lewis rats = assay: Endotoxin-induced uveitis (EIU), duration of action after subconjunctival injection; type: in vivo, rat
# Sprague-Dawley rats = assay: Bilateral renal ischemia reperfusion, histology; type: in vivo, rat
# Wistar rats = assay: Ligature-induced periodontitis; type: in vivo, rat; details: day 17
# [5] = system: female Sprague-Dawley rats; assay: Cyclophosphamide (CYP)-induced acute cystitis, intravesical treatment; type: in vivo, rat; details: 24 h after CYP
# C57BL/6 mice = assay: Bleomycin-induced acute lung inflammation (COPD model); type: in vivo, mouse
# THP-1 cells = assay: LPS-induced cytokine release; type: cell-based; details: Fig. 27 A-C
# [6] = Immunostaining of liver 24 h after 1 mg/kg i.v.; type: in vivo, rat; details: Fig. 26
# [7] = system: human foreskin fibroblasts (HFFs); assay: Neutral Red cytotoxicity assay; type: cell-based; details: 1, 2, 5 μM, 24 h
# [8] = 20 μg/eye, 1 day before induction
# [9] = 20 μg/eye, 2 days before induction
# [10] = 20 μg/eye, 7 days before induction
# [11] = 20 μg/eye, 14 days before induction
# [12] = 20 μg/eye, 21 days before induction
# [13] = 20 μg/eye, 28 days before induction
substance,measurement,setting,value
NH2-DQSRPVQPFLNLTTPRKPRPPRRRQRRKKRG-COOH (H-DQSRPVQPFLNLTTPRKPRPPRRRQRRKKRG-OH; also: D-amino acids (positions not given here)) [XG-102],VZV spread (pfu) ± SD,[1]; 0.5 μM,260 ± 53 pfu
same,VZV spread (pfu) ± SD,[1]; 1.0 μM,212 ± 48 pfu
same,VZV spread (pfu) ± SD,[1]; 2.0 μM,312 ± 79 pfu
same,EC50,"[1]; interpolated from graph, read-out: EC50 (50% reduction of VZV yield)",~0.3 µM
same,"AEs leading to interruption of study treatment, events (%)",[2]; 90 μg,11 (14.1%)
same,"mild AEs, number of events (% of reported events)",[2]; 90 μg,55 (70.5%)
same,"moderate AEs, number of events (%)",[2]; 90 μg,6 (7.7%)
same,patients with an AE within 24 h of administration,[2]; 90 μg,34%
same,patients with intraocular pressure increased,[2]; 90 μg,23%
same,"severe AEs, number of events (%)",[2]; 90 μg,17 (21.7%)
same,"SOC eye disorders, patients","[2]; 90 μg (26 patients), p=0.025 vs dexamethasone",55%
same,"premature withdrawal of study eye drops, patients (%)",[2]; 90 μg (N=47),10 (21.3%)
same,overall tolerability,[2]; 90 μg and 900 μg,내약성이 우수하였다
same,"anterior chamber cell grade vs dexamethasone, days 7 and 14","[2]; 90 μg and 900 μg, FAS",통계적으로 현저한 차이가 없었다
same,"anterior chamber flare grade vs dexamethasone, days 7, 14, 28","[2]; 90 μg and 900 μg, FAS",통계적으로 현저한 차이가 없었다
same,"difference in anterior chamber cell grade vs dexamethasone, day 28","[2]; 90 μg single subconj. inj., PP, 95% CI -0.214-0.385, p=0.003",0.086
same,patients with an adverse event,"[2]; 90 μg, 31/47",66%
same,"difference in anterior chamber cell grade vs dexamethasone, day 28","[2]; 90 μg, FAS, 95% CI -0.215-0.321, p<0.001",0.053
same,odds of cleared ocular inflammation vs usual treatment group,"[2]; 90 μg, FAS, day 7",0.52
same,odds of cleared ocular inflammation vs usual treatment group,"[2]; 90 μg, FAS, day 14",0.85
same,odds of cleared ocular inflammation vs usual treatment group,"[2]; 90 μg, FAS, day 28",1.24
same,odds of cleared ocular inflammation vs usual treatment group,"[2]; 90 μg, PP, day 7",0.56
same,odds of cleared ocular inflammation vs usual treatment group,"[2]; 90 μg, PP, day 14",0.97
same,odds of cleared ocular inflammation vs usual treatment group,"[2]; 90 μg, PP, day 28",1.45
same,patients with rescue medication introduced,"[2]; 90 μg, p=0.013 vs dexamethasone",21.3%
same,"AEs leading to interruption of study treatment, events (%)",[2]; 900 μg,8 (11.6%)
same,"mild AEs, number of events (%)",[2]; 900 μg,49 (71.0%)
same,"moderate AEs, number of events (%)",[2]; 900 μg,12 (17.4%)
same,patients with an AE within 24 h of administration,[2]; 900 μg,27%
same,patients with intraocular pressure increased,[2]; 900 μg,10%
same,"severe AEs, number of events (%)",[2]; 900 μg,8 (11.6%)
same,"SOC eye disorders, patients",[2]; 900 μg (24 patients),50%
same,"premature withdrawal of study eye drops, patients (%)",[2]; 900 μg (N=48),8 (16.7%)
same,"difference in anterior chamber cell grade vs dexamethasone, day 28","[2]; 900 μg single subconj. inj., PP, 95% CI -0.350-0.242, non-inferior p<0.001",-0.054
same,patients with an adverse event,"[2]; 900 μg, 32/48",67%
same,"difference in anterior chamber cell grade vs dexamethasone, day 28","[2]; 900 μg, FAS, 95% CI -0.301-0.238, p<0.001",-0.032
same,odds of cleared ocular inflammation vs usual treatment group,"[2]; 900 μg, FAS, day 7",0.76
same,odds of cleared ocular inflammation vs usual treatment group,"[2]; 900 μg, FAS, day 14",1.25
same,odds of cleared ocular inflammation vs usual treatment group,"[2]; 900 μg, FAS, day 28",1.13
same,odds of cleared ocular inflammation vs usual treatment group,"[2]; 900 μg, PP, day 7",0.84
same,odds of cleared ocular inflammation vs usual treatment group,"[2]; 900 μg, PP, day 14",1.12
same,odds of cleared ocular inflammation vs usual treatment group,"[2]; 900 μg, PP, day 28",1.26
same,patients with rescue medication introduced,"[2]; 900 μg, not significant vs dexamethasone",14.6%
same,development of glomerular and tubulointerstitial fibrosis,rats; 2 mg/kg i.v. day 0,발생을 예방하고
same,effect on adriamycin-induced nephropathy (histology),"rats; 20, 200, 2000 μg/kg i.v., days 8-41",현저하게 긍정적인 효과를 갖는다
same,serum urea level throughout the disease course,"rats; ADR 10 mg/kg + XG-102 2 mg/kg i.v. day 0, up to day 56",≤ 10 mmol/L
same,adverse effect on proteinuria,"rats; albumin ELISA, Fig. 41",어떠한 역효과도 유발하지 않는
same,c-jun expression in the interstitium,"rats; days 8 and 14, Fig. 46-47",현저한 감소를 초래
same,lowest tested concentration preventing VZV replication,[3],0.25 µM
same,islet function (static insulin secretion) after 18 h culture,rat pancreatic islets; 15-min ischemia,섬 기능에 영향을 미치지 않았다
same,glucose-induced insulin secretion vs ischemic rats,"rat pancreatic islets; 30-min ischemia, 100 μM",더 높았으며
same,islet apoptosis and necrosis,"rat pancreatic islets; 30-min ischemia, 100 μM",세포 자멸 및 괴사를 감소시키는
same,JNK and PAF2 phosphorylation induced by 15-min ischemia,"rat pancreatic islets; Western blot, Fig. 56",투여량 의존적으로 감소되는
same,mean tumour volume over time,[4],종양 부피의 감소
same,"clinical score, mean ± SEM (n=20)","Lewis rats; 20 μg/eye subconj., day of induction, 24 h after LPS, vehicle 4.0 ± 0.2",2.8 ± 0.2
same,"clinical score, mean ± SEM (n=20)",Lewis rats; [8],1.6 ± 0.1
same,"clinical score, median",Lewis rats; [8],1.5
same,"leukocytes in aqueous humor, mean ± SEM (n=20)",Lewis rats; [8],1668 ± 149 세포/μL
same,"leukocytes in aqueous humor, median",Lewis rats; [8],1540 세포/μL
same,reduction of clinical score,Lewis rats; [8],60%
same,reduction of leukocyte infiltration,Lewis rats; [8],48%
same,"clinical score, mean ± SEM (n=20)",Lewis rats; [9],1.8 ± 0.2
same,"clinical score, median",Lewis rats; [9],2.0
same,"leukocytes in aqueous humor, mean ± SEM (n=20)",Lewis rats; [9],1844 ± 232 세포/μL
same,"leukocytes in aqueous humor, median",Lewis rats; [9],1500 세포/μL
same,reduction of clinical score,Lewis rats; [9],55%
same,reduction of leukocyte infiltration,Lewis rats; [9],43%
same,"clinical score, mean ± SEM (n=20)",Lewis rats; [10],3.3 ± 0.2
same,"clinical score, median",Lewis rats; [10],3.0
same,"leukocytes in aqueous humor, mean ± SEM (n=20)",Lewis rats; [10],2878 ± 331 세포/μL
same,"leukocytes in aqueous humor, median",Lewis rats; [10],2473 세포/μL
same,reduction of clinical score,Lewis rats; [10],18%
same,reduction of leukocyte infiltration,Lewis rats; [10],11%
same,"clinical score, mean ± SEM (n=20)",Lewis rats; [11],2.9 ± 0.2
same,"clinical score, median",Lewis rats; [11],3.0
same,"leukocytes in aqueous humor, mean ± SEM (n=20)",Lewis rats; [11],976 ± 143 세포/μL
same,"leukocytes in aqueous humor, median",Lewis rats; [11],648 세포/μL
same,reduction of clinical score,Lewis rats; [11],28%
same,reduction of leukocyte infiltration,Lewis rats; [11],70%
same,"clinical score, mean ± SEM (n=20)",Lewis rats; [12],3.1 ±0.3
same,"clinical score, median",Lewis rats; [12],3.0
same,"leukocytes in aqueous humor, mean ± SEM (n=20)",Lewis rats; [12],1029 ± 164 세포/μL
same,"leukocytes in aqueous humor, median",Lewis rats; [12],1023 세포/μL
same,reduction of clinical score,Lewis rats; [12],23%
same,reduction of leukocyte infiltration,Lewis rats; [12],68%
same,"clinical score, mean ± SEM (n=20)",Lewis rats; [13],3.3 ± 0.2
same,"clinical score, median",Lewis rats; [13],4.0
same,"leukocytes in aqueous humor, mean ± SEM (n=20)",Lewis rats; [13],1260 ± 263 세포/μL
same,"leukocytes in aqueous humor, median",Lewis rats; [13],915 세포/μL
same,reduction of clinical score,Lewis rats; [13],18%
same,reduction of leukocyte infiltration,Lewis rats; [13],61%
same,"clinical score, median","Lewis rats; 20 μg/eye, day of induction",3.0
same,"leukocytes in aqueous humor, median","Lewis rats; 20 μg/eye, day of induction",2005 세포/μL
same,reduction of clinical score,"Lewis rats; 20 μg/eye, day of induction",30%
same,reduction of leukocyte infiltration,"Lewis rats; 20 μg/eye, day of induction",31%
same,"leukocytes in aqueous humor, mean ± SEM (n=20)","Lewis rats; 20 μg/eye, day of induction, vehicle 3236 ± 346",2226 ± 192 세포/μL
same,mean tubular epithelial degeneration/necrosis score (0-4),"Sprague-Dawley rats; 2 mg/kg i.v. 20 min after reperfusion, 24 h, IR/vehicle 3.45 ± 0.52",2.67 ± 0.65
same,animals with degeneration/necrosis score 2,"Sprague-Dawley rats; 2 mg/kg i.v., IR/vehicle 0/11",5/12
same,mean basophilic tubules score (0-4),"Sprague-Dawley rats; 2 mg/kg i.v., IR/vehicle 1.36 ± 0.67",1.33 ± 0.65
same,tubular cast score (0-4),"Sprague-Dawley rats; 2 mg/kg i.v., IR/vehicle 3.00 ± 0.00",2.50 ± 0.52
same,animals with degeneration/necrosis score 4,"Sprague-Dawley rats; 2 mg/kg i.v., IR/vehicle 5/11",1/12
same,total tubular score,"Sprague-Dawley rats; 2 mg/kg i.v., IR/vehicle 7.82 ± 0.98",6.50 ± 0.80
same,alveolar bone height loss (ABHL),Wistar rats,골 파괴가 덜 심함
same,IL1-β expression vs placebo,Wistar rats; gingival tissue ELISA,현저하게 감소되었다
same,gingival inflammation (GI) level,Wistar rats; single intragingival dose day 10,GI 수준을 강하게 감소시켰다
same,AUC 1-8 g (allodynia) vs vehicle,[5]; 50 mg/mL i.ves.,현저하게 감소되었다
same,AUC 8-60 g (hyperalgesia) vs vehicle,[5]; 50 mg/mL i.ves.,감소되었다
same,haemorrhage score,[5]; 50 mg/mL i.ves.,통계적으로 현저한 것에 이르지는 않았다
same,nociceptive scores vs vehicle,[5]; 50 mg/mL i.ves.,현저하게 감소시켰다
same,urinary bladder wall thickness,[5]; 50 mg/mL i.ves.,현저하게 감소되었다
same,nociceptive threshold vs vehicle,"[5]; 50 mg/mL, 500 μL i.ves.",현저하게 증가하였다
same,neutrophil recruitment or other cell types in BAL,"C57BL/6 mice; 0.001 mg/kg s.c. single dose, 24 h",영향을 미치지 않았다
same,neutrophil recruitment and total cell number in BAL,"C57BL/6 mice; 0.1 mg/kg s.c. single dose, 24 h",현저하게 감소시켰다
same,lung MPO level,C57BL/6 mice; MPO not induced by bleomycin,영향을 주지 않았다
same,TNF level in BALF,C57BL/6 mice; TNF very low after BLM,감소하는 경향이 관찰되었다
same,"LPS-induced TNFa, IL-6, MCP-1 release",THP-1 cells,사이토카인 방출을 억제한다
same,"accumulation in liver, especially Kupffer cells",[6],명백한 축적
same,cytotoxicity,[7],관찰되지 않았으며
